This is an account of results in patent publication US4808588A, “Heterocyclic ureas and carbonates useful as pharmaceuticals” (Beecham Group, p.l.c., priority 1986, dated 1989).

Structures are written as SMILES.

The assay concerns von Bezold-Jarisch reflex evoked by 5-HT. The experiment in a line: Antagonism of the von Bezold-Jarisch reflex evoked by 5-HT in the anaesthetised rat. It is filed as in vivo. Particulars: anaesthetised male rats, compound intravenous, 5-HT usually 6 μg/kg i.v., heart rate changes, read-out: ED50 (concentration required to reduce the 5-HT-evoked response to 50% of the control response). How it is done: Antagonism of the von Bezold-Jarisch reflex
The compounds were evaluated for antagonism of the von Bezold-Jarisch reflex evoked by 5-HT in the anaesthetised rat according to the following method:
Male rats 250-350 g, were anaesthetised with urethane (1.25 g/kg intraperitoneally) and blood pressure and heart rate recorded as described by Fozard J. R. et al., J. Cardiovasc. Pharmacol. 2, 229-245 (1980). A submaximal dose of 5-HT (usually 6 μg/kg) was given repeatedly by the intravenous route and changes in heart rate quantified. Compounds were given intravenously and the concentration required to reduce the 5-HT-evoked response to 50% of the control response (ED50) was then determined.

As for `COc1ncccc1NC(=O)N[C@H]1C[C@H]2CC[C@@H](C1)N2C` [Compound 1, (endo)-N-(8-Methyl-8-azabicyclo[3.2.1]oct-3-yl)-N'-(2-methoxy-pyrid-3-yl)urea], the ED50 is 7.5 µg/kg.

For the compound `COc1ccsc1NC(=O)N[C@H]1C[C@H]2CC[C@@H](C1)N2C` [Compound 3, (endo)-N-(8-Methyl-8-azabicyclo[3,2,1]oct-3-yl)-N'-(3-methoxythiophen-2-yl)urea], the ED50 was 1 µg/kg.

On to `COc1cscc1NC(=O)N[C@H]1C[C@H]2CC[C@@H](C1)N2C` [Compound 5, (endo)-N-(8-Methyl-8-azabicyclo[3,2,1]oct-3-yl)-N'-(4-methoxythiophen-3-yl)urea], for which the ED50 was found to be 2 µg/kg.
